Reference: article PMC10557146 (2023)

System: htel, d[AG3(TTAG3)3]; htel(K) (hybrid in K+); htel(Na) (antiparallel in Na+) (DNA, G4) AGGGTTAGGGTTAGGGTTAGGG
Experiment: visible absorption titration, 380 nm, Bard fit
Settings: pH 7, 298 K, per G-tetrad

Kb (K+ (100 mM KCl), 50 mM phosphate, hybrid htel(K), site size 1.8, 7.2 μM complex): 1.1(±0.6) × 10^7 M^-1 | Kb (K+ (100 mM KCl), phosphate buffer, hybrid htel(K), site size 1.5): 4.2(±0.5) × 10^5 M^-1 | Kb (Na+ (sodium phosphate; 100 mM NaCl in TRIR samples), phosphate buffer, antiparallel htel(Na), site size 1.1): 1.9(±0.7) × 10^5 M^-1 | Kb (Na+ (sodium phosphate; 100 mM NaCl in TRIR samples), phosphate buffer, antiparallel htel(Na), site size 1.5): 2.2(±0.3) × 10^6 M^-1
SMILES: N#Cc1cc2nc3c4cccnc4c4ncccc4c3nc2cc1C#N.[Ru+2].c1cnc2c(c1)ccc1cccnc12.c1cnc2c(c1)ccc1cccnc12
